Test results published in PubChem BioAssay AID248 (DTP/NCI, 2004).
Values joined by “and” are separate entries in the source; they are usually repeats but may differ in a detail not shown here. Identical values can stand only once. Inconclusive results and toxic doses are left out. Rule as the data show it: active = T/C of 150% or more; inactive = T/C below 125%.

System: L1210 leukemia ip in BDF1 mice, survival T/C
Experiment: NCI In Vivo Anticancer Drug Screen. Data for tumor model L1210 Leukemia (intraperitoneal) in B6D2F1 (BDF1) mice
Conditions: endpoint: mean survival time, higher = longer survival
How it was run: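 Each compound was tested against a transplantable tumor grown in mice. The endpoint was survival, with treated animals benchmarked against vehicle controls as a simple ratio.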

[1] = dose: 100.0 mg/kg/injection, schedule: Q04DX003 (ip), vehicle: saline with Tween-80
[2] = dose: 12.5 mg/kg/injection, schedule: Q01DX009 (ip), vehicle: saline
[3] = dose: 100.0 mg/kg/injection, schedule: Q01DX001 (ip), vehicle: carboxymethylcellulose (CMC)
[4] = dose: 200.0 mg/kg/injection, schedule: Q01DX001 (ip), vehicle: carboxymethylcellulose (CMC)
[5] = dose: 400.0 mg/kg/injection, schedule: Q01DX001 (ip), vehicle: carboxymethylcellulose (CMC)
[6] = dose: 200.0 mg/kg/injection, schedule: Q04DX003 (ip), vehicle: saline with Tween-80
[7] = dose: 100.0 mg/kg/injection, schedule: Q01DX009 (ip), vehicle: Klucel (hydroxypropylcellulose) (HPC)
[8] = dose: 100.0 mg/kg/injection, schedule: Q04DX003 (ip), vehicle: Klucel (hydroxypropylcellulose) (HPC)
[9] = dose: 200.0 mg/kg/injection, schedule: Q01DX009 (ip), vehicle: Klucel (hydroxypropylcellulose) (HPC)
[10] = dose: 200.0 mg/kg/injection, schedule: Q04DX003 (ip), vehicle: Klucel (hydroxypropylcellulose) (HPC)
[11] = dose: 400.0 mg/kg/injection, schedule: Q01DX009 (ip), vehicle: Klucel (hydroxypropylcellulose) (HPC)
[12] = dose: 400.0 mg/kg/injection, schedule: Q04DX003 (ip), vehicle: Klucel (hydroxypropylcellulose) (HPC)

Measured: T/C

C1OC1[C@@H]1CC[C@H]1C1CO1 (some centres undefined)
inactive: dose: 50.0 mg/kg/injection, schedule: Q01DX001 (ip), vehicle: saline 98 % of control and 112 % of control | dose: 51.1 mg/kg/injection, schedule: Q01DX Z (ip), vehicle: carboxymethylcellulose (CMC) 103 % of control | dose: 51.1 mg/kg/injection, schedule: Q01DX Z (ip), vehicle: methylcellulose (MC) 109 % of control | dose: 76.6 mg/kg/injection, schedule: Q01DX Z (ip), vehicle: carboxymethylcellulose (CMC) 114 % of control | dose: 76.6 mg/kg/injection, schedule: Q01DX Z (ip), vehicle: methylcellulose (MC) 118 % of control | dose: 88.0 mg/kg/injection, schedule: Q01DX001 (ip), vehicle: saline 107 % of control | dose: 100.0 mg/kg/injection, schedule: Q01DX001 (ip), vehicle: saline 112 % of control and 118 % of control | dose: 115.0 mg/kg/injection, schedule: Q01DX Z (ip), vehicle: methylcellulose (MC) 106 % of control | dose: 133.0 mg/kg/injection, schedule: Q01DX001 (ip), vehicle: saline 109 % of control

OC(CC(CC(O)(C(F)(F)F)C(F)(F)F)=NNc1ccccc1)(C(F)(F)F)C(F)(F)F
inactive: dose: 25.0 mg/kg/injection, schedule: Q04DX003 (ip), vehicle: saline with Tween-80 101 % of control | dose: 50.0 mg/kg/injection, schedule: Q04DX003 (ip), vehicle: saline with Tween-80 101 % of control | [1] 93 % of control and 90 % of control

COC(=O)C1=COC(C)C(C=O)C1CC(=O)O (centres undefined)
inactive: [2] 108 % of control | dose: 20.0 mg/kg/injection, schedule: Q01DX001 (ip), vehicle: saline 103 % of control | dose: 25.0 mg/kg/injection, schedule: Q01DX009 (ip), vehicle: saline 103 % of control | dose: 25.0 mg/kg/injection, schedule: Q04DX003 (ip), vehicle: saline 110 % of control | dose: 40.0 mg/kg/injection, schedule: Q01DX001 (ip), vehicle: saline 118 % of control | dose: 50.0 mg/kg/injection, schedule: Q04DX003 (ip), vehicle: saline 111 % of control | dose: 80.0 mg/kg/injection, schedule: Q01DX001 (ip), vehicle: saline 118 % of control

CC(=O)N1Cc2cccn2Cc2cc3c(cc21)OCO3
inactive: dose: 25.0 mg/kg/injection, schedule: Q04DX002 (ip), vehicle: Klucel (hydroxypropylcellulose) (HPC) 97 % of control | dose: 50.0 mg/kg/injection, schedule: Q04DX002 (ip), vehicle: Klucel (hydroxypropylcellulose) (HPC) 87 % of control | dose: 100.0 mg/kg/injection, schedule: Q04DX002 (ip), vehicle: Klucel (hydroxypropylcellulose) (HPC) 97 % of control

O=C1CCC(=O)N1Nc1ccccc1
inactive: dose: 50.0 mg/kg/injection, schedule: Q01DX001 (ip), vehicle: carboxymethylcellulose (CMC) 104 % of control | [3] 96 % of control | [4] 102 % of control | [5] 98 % of control

C[CH2][Pb]([CH2]C)([CH2]C)[O]C(=O)CBr
inactive: dose: 0.78 mg/kg/injection, schedule: Q01DX009 (ip), vehicle: Klucel (hydroxypropylcellulose) (HPC) 92 % of control | dose: 1.56 mg/kg/injection, schedule: Q01DX009 (ip), vehicle: Klucel (hydroxypropylcellulose) (HPC) 103 % of control | dose: 3.12 mg/kg/injection, schedule: Q01DX009 (ip), vehicle: Klucel (hydroxypropylcellulose) (HPC) 98 % of control and 92 % of control | dose: 3.12 mg/kg/injection, schedule: Q04DX002 (ip), vehicle: Klucel (hydroxypropylcellulose) (HPC) 93 % of control | dose: 6.25 mg/kg/injection, schedule: Q04DX002 (ip), vehicle: Klucel (hydroxypropylcellulose) (HPC) 90 % of control | dose: 12.5 mg/kg/injection, schedule: Q04DX002 (ip), vehicle: Klucel (hydroxypropylcellulose) (HPC) 98 % of control and 106 % of control

Cc1cc(=O)[nH]c2ccccc12
inactive: [1] 91 % of control | [6] 95 % of control

CC(=O)OC1CCC2(C)C3CCC4(C)C(C(C)/C=C/C(C)C(C)C)CCC4C34C=CC2(C1)C1C(=O)OC(=O)C14 (centres undefined)
inactive: dose: 100.0 mg/kg/injection, schedule: Q04DX002 (ip), vehicle: saline 93 % of control | dose: 200.0 mg/kg/injection, schedule: Q04DX002 (ip), vehicle: saline 96 % of control | dose: 400.0 mg/kg/injection, schedule: Q04DX002 (ip), vehicle: saline 89 % of control

CCOC(=O)c1cc2c([nH]1)CCCC2
inactive: dose: 100.0 mg/kg/injection, schedule: Q04DX002 (ip), vehicle: saline with Tween-80 100 % of control | dose: 200.0 mg/kg/injection, schedule: Q04DX002 (ip), vehicle: saline with Tween-80 94 % of control | dose: 400.0 mg/kg/injection, schedule: Q04DX002 (ip), vehicle: saline with Tween-80 97 % of control

COc1ccc(CCN=Cc2ccc(Cl)cc2)cc1OC
inactive: [7] 104 % of control | [8] 93 % of control | [9] 95 % of control | [10] 96 % of control | [11] 95 % of control | [12] 103 % of control

[Br][Sn]([Br])([c]1cccc2ccccc12)[c]1cccc2ccccc12
inactive: dose: 100.0 mg/kg/injection, schedule: Q01DX001 (ip), vehicle: saline with Tween-80 102 % of control | dose: 200.0 mg/kg/injection, schedule: Q01DX001 (ip), vehicle: saline with Tween-80 93 % of control | dose: 400.0 mg/kg/injection, schedule: Q01DX001 (ip), vehicle: saline with Tween-80 93 % of control

ON(C(=Nc1cccc2ccccc12)c1ccccc1)c1ccccc1
inactive: dose: 75.0 mg/kg/injection, schedule: Q01DX001 (ip), vehicle: carboxymethylcellulose (CMC) 97 % of control | dose: 150.0 mg/kg/injection, schedule: Q01DX001 (ip), vehicle: carboxymethylcellulose (CMC) 92 % of control | dose: 300.0 mg/kg/injection, schedule: Q01DX001 (ip), vehicle: carboxymethylcellulose (CMC) 98 % of control

NC(=O)NC1CCCCCCC1
inactive: [1] 98 % of control | [6] 89 % of control | dose: 400.0 mg/kg/injection, schedule: Q04DX003 (ip), vehicle: saline with Tween-80 95 % of control

O=C(C(=O)c1ccc([N+](=O)[O-])cc1)c1ccccc1
inactive: [8] 97 % of control | [10] 100 % of control | [12] 94 % of control

O=C(Nc1ccccc1)N(C1CCCCC1)C1CCCCC1
inactive: [7] 86 % of control | [9] 88 % of control | [11] 89 % of control

CCCC#CCOCC1CO1 (centres undefined)
inactive: dose: 100.0 mg/kg/injection, schedule: Q01DX009 (ip), vehicle: saline 93 % of control | dose: 100.0 mg/kg/injection, schedule: Q04DX003 (ip), vehicle: saline sonified 98 % of control | dose: 200.0 mg/kg/injection, schedule: Q01DX009 (ip), vehicle: saline 89 % of control | dose: 200.0 mg/kg/injection, schedule: Q04DX003 (ip), vehicle: saline sonified 109 % of control | dose: 400.0 mg/kg/injection, schedule: Q01DX009 (ip), vehicle: saline 91 % of control | dose: 400.0 mg/kg/injection, schedule: Q04DX003 (ip), vehicle: saline sonified 104 % of control

CCCCCCOc1ccc(C2=C(c3ccccc3)C(=O)C(c3ccccc3)=C2c2ccccc2)cc1
inactive: [3] 100 % of control | [4] 97 % of control | [5] 100 % of control

CC[n+]1c(C)sc2cc3c(cc21)OCO3
inactive: dose: 25.0 mg/kg/injection, schedule: Q04DX003 (ip), vehicle: Klucel (hydroxypropylcellulose) (HPC) 102 % of control | dose: 50.0 mg/kg/injection, schedule: Q01DX009 (ip), vehicle: Klucel (hydroxypropylcellulose) (HPC) 103 % of control | dose: 50.0 mg/kg/injection, schedule: Q04DX003 (ip), vehicle: Klucel (hydroxypropylcellulose) (HPC) 107 % of control | [7] 96 % of control | [8] 105 % of control and 109 % of control

c1ccc(C2=C([P+](c3ccccc3)(c3ccccc3)c3ccccc3)CCO2)cc1
inactive: dose: 3.0 mg/kg/injection, schedule: Q04DX003 (ip), vehicle: saline 102 % of control | dose: 3.12 mg/kg/injection, schedule: Q01DX009 (ip), vehicle: saline 117 % of control | dose: 6.0 mg/kg/injection, schedule: Q01DX001 (ip), vehicle: saline 108 % of control | dose: 6.0 mg/kg/injection, schedule: Q04DX003 (ip), vehicle: saline 117 % of control | dose: 6.25 mg/kg/injection, schedule: Q01DX009 (ip), vehicle: saline 109 % of control | dose: 12.0 mg/kg/injection, schedule: Q01DX001 (ip), vehicle: saline 108 % of control | dose: 12.0 mg/kg/injection, schedule: Q04DX003 (ip), vehicle: saline 101 % of control and 107 % of control | [2] 92 % of control | dose: 25.0 mg/kg/injection, schedule: Q01DX001 (ip), vehicle: saline 102 % of control
